PubChem BioAssay AID1259407 (Chemical Carcinogenesis Research Information System (CCRIS), 2018)
Active and inactive are the calls of the source. How the calls were made is not given here.

Tested on: CCRIS mutagenicity, Ames/micronucleus/aberration tests
Test: CCRIS mutagenicity studies
[1] = Test System: AMES SALMONELLA TYPHIMURIUM, Strain/Indicator: TA97, Metabolic Activation: NONE, Method: STANDARD PLATE
[2] = Test System: AMES SALMONELLA TYPHIMURIUM, Strain/Indicator: TA98, Metabolic Activation: NONE, Method: STANDARD PLATE
[3] = Test System: AMES SALMONELLA TYPHIMURIUM, Strain/Indicator: TA100, Metabolic Activation: NONE, Method: STANDARD PLATE
[4] = Test System: AMES SALMONELLA TYPHIMURIUM, Strain/Indicator: TA98, Metabolic Activation: NONE
[5] = Test System: AMES SALMONELLA TYPHIMURIUM, Strain/Indicator: TA98, Metabolic Activation: NONE, Method: PREINCUBATION
[6] = Test System: AMES SALMONELLA TYPHIMURIUM, Strain/Indicator: TA98, Metabolic Activation: RAT, LIVER, S-9, KC 500, Method: PREINCUBATION
[7] = Test System: AMES SALMONELLA TYPHIMURIUM, Strain/Indicator: TA100, Metabolic Activation: NONE
[8] = Test System: AMES SALMONELLA TYPHIMURIUM, Strain/Indicator: TA100, Metabolic Activation: NONE, Method: PREINCUBATION
[9] = Test System: AMES SALMONELLA TYPHIMURIUM, Strain/Indicator: TA100, Metabolic Activation: RAT, LIVER, S-9, KC 500, Method: PREINCUBATION
[10] = Test System: AMES SALMONELLA TYPHIMURIUM, Strain/Indicator: TA1535, Metabolic Activation: NONE, Method: PREINCUBATION
[11] = Test System: AMES SALMONELLA TYPHIMURIUM, Strain/Indicator: TA1535, Metabolic Activation: RAT, LIVER, S-9, KC 500, Method: PREINCUBATION
[12] = Test System: AMES SALMONELLA TYPHIMURIUM, Strain/Indicator: TA1537, Metabolic Activation: NONE, Method: PREINCUBATION
[13] = Test System: AMES SALMONELLA TYPHIMURIUM, Strain/Indicator: TA1537, Metabolic Activation: RAT, LIVER, S-9, KC 500, Method: PREINCUBATION
[14] = Test System: AMES SALMONELLA TYPHIMURIUM, Strain/Indicator: TA1538, Metabolic Activation: NONE, Method: PREINCUBATION
[15] = Test System: AMES SALMONELLA TYPHIMURIUM, Strain/Indicator: TA1538, Metabolic Activation: RAT, LIVER, S-9, KC 500, Method: PREINCUBATION
[16] = Test System: E. COLI, Strain/Indicator: WP2 UVRA, Metabolic Activation: NONE, Method: PREINCUBATION
[17] = Test System: E. COLI, Strain/Indicator: WP2 UVRA, Metabolic Activation: RAT, LIVER, S-9, KC 500, Method: PREINCUBATION

## CC(F)(F)F
[1]
  mutagenic call: inactive; negative
Test System: AMES SALMONELLA TYPHIMURIUM, Strain/Indicator: TA97, Metabolic Activation: RAT, LIVER, S-9, AROCLOR 1254, Method: STANDARD PLATE
  mutagenic call: inactive; negative
[2]
  mutagenic call: inactive; negative
Test System: AMES SALMONELLA TYPHIMURIUM, Strain/Indicator: TA98, Metabolic Activation: RAT, LIVER, S-9, AROCLOR 1254, Method: STANDARD PLATE
  mutagenic call: inactive; negative
[3]
  mutagenic call: inactive; negative
Test System: AMES SALMONELLA TYPHIMURIUM, Strain/Indicator: TA100, Metabolic Activation: RAT, LIVER, S-9, AROCLOR 1254, Method: STANDARD PLATE
  mutagenic call: inactive; negative
Test System: AMES SALMONELLA TYPHIMURIUM, Strain/Indicator: TA1535, Metabolic Activation: NONE, Method: STANDARD PLATE
  mutagenic call: inactive; negative
Test System: AMES SALMONELLA TYPHIMURIUM, Strain/Indicator: TA1535, Metabolic Activation: RAT, LIVER, S-9, AROCLOR 1254, Method: STANDARD PLATE
  mutagenic call: inactive; negative
Test System: AMES SALMONELLA TYPHIMURIUM, Strain/Indicator: TA1538, Metabolic Activation: NONE, Method: STANDARD PLATE
  mutagenic call: inactive; negative
Test System: AMES SALMONELLA TYPHIMURIUM, Strain/Indicator: TA1538, Metabolic Activation: RAT, LIVER, S-9, AROCLOR 1254, Method: STANDARD PLATE
  mutagenic call: inactive; negative
Test System: E. COLI, Strain/Indicator: WP2 UVRA (PKM101), Metabolic Activation: NONE, Method: STANDARD PLATE
  mutagenic call: inactive; negative
Test System: E. COLI, Strain/Indicator: WP2 UVRA (PKM101), Metabolic Activation: RAT, LIVER, S-9, AROCLOR 1254, Method: STANDARD PLATE
  mutagenic call: inactive; negative

## N
End Point: IN VIVO MICRONUCLEUS, Test System: BONE MARROW POLYCHROMATIC ERYTHROCYTES, Species: MOUSE, Strain/Sex: DDY/MALE, Route: IP
  mutagenic call: inactive; negative
[4]
  mutagenic call: inactive; negative
[5]
  mutagenic call: inactive; negative
Test System: AMES SALMONELLA TYPHIMURIUM, Strain/Indicator: TA98, Metabolic Activation: RAT, LIVER, S-9, KC 500
  mutagenic call: inactive; negative
[6]
  mutagenic call: inactive; negative
[7]
  mutagenic call: inactive; negative
[8]
  mutagenic call: inactive; negative
Test System: AMES SALMONELLA TYPHIMURIUM, Strain/Indicator: TA100, Metabolic Activation: RAT, LIVER, S-9, KC 500
  mutagenic call: inactive; negative
[9]
  mutagenic call: inactive; negative
Test System: AMES SALMONELLA TYPHIMURIUM, Strain/Indicator: TA1535, Metabolic Activation: NONE
  mutagenic call: inactive; negative
[10]
  mutagenic call: inactive; negative
Test System: AMES SALMONELLA TYPHIMURIUM, Strain/Indicator: TA1535, Metabolic Activation: RAT, LIVER, S-9, KC 500
  mutagenic call: inactive; negative
[11]
  mutagenic call: inactive; negative
Test System: AMES SALMONELLA TYPHIMURIUM, Strain/Indicator: TA1537, Metabolic Activation: NONE
  mutagenic call: inactive; negative
[12]
  mutagenic call: inactive; negative
Test System: AMES SALMONELLA TYPHIMURIUM, Strain/Indicator: TA1537, Metabolic Activation: RAT, LIVER, S-9, KC 500
  mutagenic call: inactive; negative
[13]
  mutagenic call: inactive; negative
Test System: AMES SALMONELLA TYPHIMURIUM, Strain/Indicator: TA1538, Metabolic Activation: NONE
  mutagenic call: inactive; negative
[14]
  mutagenic call: inactive; negative
Test System: AMES SALMONELLA TYPHIMURIUM, Strain/Indicator: TA1538, Metabolic Activation: RAT, LIVER, S-9, KC 500
  mutagenic call: inactive; negative
[15]
  mutagenic call: inactive; negative
Test System: E. COLI, Strain/Indicator: WP2 UVRA, Metabolic Activation: NONE
  mutagenic call: inactive; negative
[16]
  mutagenic call: inactive; negative
Test System: E. COLI, Strain/Indicator: WP2 UVRA, Metabolic Activation: RAT, LIVER, S-9, KC 500
  mutagenic call: inactive; negative
[17]
  mutagenic call: inactive; negative

## O=C(O)[C@@H]1Cc2c([nH]c3ccccc23)[C@H]([C@H]2CCNC2=S)N1
[4]
  mutagenic call: inactive; negative
Test System: AMES SALMONELLA TYPHIMURIUM, Strain/Indicator: TA98, Metabolic Activation: S-9
  mutagenic call: inactive; negative
[7]
  mutagenic call: inactive; negative
Test System: AMES SALMONELLA TYPHIMURIUM, Strain/Indicator: TA100, Metabolic Activation: S-9
  mutagenic call: inactive; negative

## O.[Cu].[Cu]
[5]
  mutagenic call: inactive; negative
[6]
  mutagenic call: inactive; negative
[8]
  mutagenic call: inactive; negative
[9]
  mutagenic call: inactive; negative
[10]
  mutagenic call: inactive; negative
[11]
  mutagenic call: inactive; negative
[12]
  mutagenic call: inactive; negative
[13]
  mutagenic call: inactive; negative
[14]
  mutagenic call: inactive; negative
[15]
  mutagenic call: inactive; negative
[16]
  mutagenic call: inactive; negative
[17]
  mutagenic call: inactive; negative

## Cc1cccc2c1ccc1ccccc12
[1]
  mutagenic call: inactive; negative
Test System: AMES SALMONELLA TYPHIMURIUM, Strain/Indicator: TA97, Metabolic Activation: RAT, LIVER, S-9, PCB, Method: STANDARD PLATE
  mutagenic call: active; positive
[2]
  mutagenic call: inactive; negative
Test System: AMES SALMONELLA TYPHIMURIUM, Strain/Indicator: TA98, Metabolic Activation: RAT, LIVER, S-9, PCB, Method: STANDARD PLATE
  mutagenic call: active; positive
[3]
  mutagenic call: inactive; negative
Test System: AMES SALMONELLA TYPHIMURIUM, Strain/Indicator: TA100, Metabolic Activation: RAT, LIVER, S-9, PCB, Method: STANDARD PLATE
  mutagenic call: active; positive

## O=C1c2ccccc2C(=O)c2c1cc(O[C@@H]1O[C@H](CO[C@@H]3OC[C@@H](O)[C@H](O)[C@H]3O)[C@@H](O)[C@H](O)[C@H]1O)c(CO)c2O
[5]
  mutagenic call: inactive; negative
Test System: AMES SALMONELLA TYPHIMURIUM, Strain/Indicator: TA98, Metabolic Activation: RAT, LIVER, S-9, PCB, Method: PREINCUBATION
  mutagenic call: inactive; negative
[8]
  mutagenic call: active; positive
Test System: AMES SALMONELLA TYPHIMURIUM, Strain/Indicator: TA100, Metabolic Activation: RAT, LIVER, S-9, PCB, Method: PREINCUBATION
  mutagenic call: inactive; negative
Test System: UDS RODENT HEPATOCYTES, Strain/Indicator: THY INCORP, Metabolic Activation: NONE
  mutagenic call: active; positive

## CC(C)(C)C1=CC(=CC=C2C=C(C(C)(C)C)C(=O)C(C(C)(C)C)=C2)C=C(C(C)(C)C)C1=O
[5]
  mutagenic call: inactive; negative
Test System: AMES SALMONELLA TYPHIMURIUM, Strain/Indicator: TA98, Metabolic Activation: RAT, LIVER, S-9, Method: PREINCUBATION
  mutagenic call: inactive; negative
[8]
  mutagenic call: inactive; negative
Test System: AMES SALMONELLA TYPHIMURIUM, Strain/Indicator: TA100, Metabolic Activation: RAT, LIVER, S-9, Method: PREINCUBATION
  mutagenic call: inactive; negative
